For data set [1], the target named is T1, interaction between the KRAS protein subtype G12D and the SOS1 protein (Homo sapiens, UniProt Q07889).
T1 construct: GST-TEV-SOS1(564-1049) (Viva Biotech, SOS1-191010); purchased SOS1: Viva Biotech; KRAS: Shanghai Panchao Biotechnology Co., Ltd. SOS1-191010
T1 sequence (Q07889 564-1049): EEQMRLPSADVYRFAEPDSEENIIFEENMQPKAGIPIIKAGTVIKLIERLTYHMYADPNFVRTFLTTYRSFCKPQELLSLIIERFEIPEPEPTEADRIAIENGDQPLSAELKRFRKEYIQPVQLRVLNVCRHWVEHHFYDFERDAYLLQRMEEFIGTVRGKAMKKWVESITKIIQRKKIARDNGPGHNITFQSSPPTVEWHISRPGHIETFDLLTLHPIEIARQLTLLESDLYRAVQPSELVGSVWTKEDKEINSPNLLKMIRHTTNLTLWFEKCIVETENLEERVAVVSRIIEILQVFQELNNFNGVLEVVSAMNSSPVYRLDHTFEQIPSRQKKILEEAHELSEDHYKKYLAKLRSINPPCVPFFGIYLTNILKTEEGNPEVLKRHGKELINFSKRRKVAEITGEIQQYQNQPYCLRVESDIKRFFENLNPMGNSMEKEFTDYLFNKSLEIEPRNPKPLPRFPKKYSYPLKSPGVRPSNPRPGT
Description: Inhibition of the interaction between KRAS G12D and SOS1 protein (AlphaLISA/AlphaScreen). The data set is classed as binding. Particulars: KRAS G12D + GST-TEV-SOS1(564-1049) + GDP. The essentials:
(§1)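 Biotinylated KRAS G12D or G12V preincubated with SOS1 and GDP, then with compound (10-point 5-fold series from 40 μM) for 30 min at room temperature in PBS, 0.1% BSA, 0.05% Tween 20. Glutathione acceptor/streptavidin donor beads added for 60 min; Alpha signal read and IC50 calculated.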

Data set [2] addresses T2, interaction between the KRAS protein subtype G12V and the SOS1 protein (Homo sapiens, UniProt Q07889).
T2 construct: GST-TEV-SOS1(564-1049) (Viva Biotech, SOS1-191010); purchased SOS1: Viva Biotech; KRAS: Shanghai Panchao Biotechnology Co., Ltd. SOS1-191010
T2 sequence (Q07889 564-1049): T1 sequence (Q07889 564-1049)
Kind of data set: Inhibition of the interaction between KRAS G12V and SOS1 protein (AlphaLISA/AlphaScreen). The class given is binding. Particulars: KRAS G12V + GST-TEV-SOS1(564-1049) + GDP. The essentials: as §1
(In general: In Alpha technology, singlet oxygen from a donor bead excites a nearby acceptor bead.)

Data set [3] in a line: Pharmacokinetic evaluation in dogs. The data set is classed as in vivo. To be noted: both sexes, dog, plasma, po, beagle dogs, intragastric administration, 2 mg/kg. The protocol:
The drug concentration in the plasma of the test animals (dogs) at different time points after intragastric administration (i.g.) of compound 18-p1 was determined by using an LC/MS/MS method. The pharmacokinetic behavior in dogs of the compound of the present disclosure was studied and its pharmacokinetic profile was evaluated.
Four beagle dogs, half male and half female, fasted overnight, supplied by animal reserve bank (999M-004). All animals were beagle dogs qualified for physical examination and healthy without abnormalities.
An amount of compound 18-p1 was weighed and dissolved in 5% by volume of DMSO, 20% by volume of PG, and 20% by volume of PEG400, and then prepared into a 0.4 mg/mL clear solution with 55% normal saline.
The administration was performed at a dose of 2.0 mg/kg and a volume of 5.0 mL/kg.
The compound 18-p1 was administered intragastrically to dogs, and 1.0 mL of blood was collected from jugular vein or forelimb vein before administration and 0.25 h, 0.5 h, 1.0 h, 2.0 h, 4.0 h, 6.0 h, 8.0 h, 12.0 h and 24.0 h after administration. The blood was placed in an EDTA-K2 anticoagulation tube and centrifuged at 10,000 rpm for 5 min (4° C.), and plasma was separated out within 1 h and then stored at −80° C. for testing. The process from blood sampling to centrifugation was performed under an ice bath. Food intake was resumed 3 h after administration.
The content of the test compounds at different concentrations in plasma of dogs after administration was determined: 25 μL of plasma of dogs at each time point after administration was taken, and 200 μL of acetonitrile (containing 50 μL of internal standard solution camptothecin, 100 ng/mL) was added; the mixture was vortexed for 5 min, and centrifuged for 10 min (4000 r/min). 0.3 μL of supernatant was taken from the plasma sample for LC/MS/MS analysis.

For `Cc1nc(N[C@H](C)c2cccc(C(F)F)c2F)c2cc([C@]3(O)CC[C@@H](O)CC3)c(=O)[nH]c2n1` [Example 18-p1, 4-(((R)-1-(3-(difluoromethyl)-2-fluorophenyl)ethyl)amino)-6-((1s,4S)-1,4-dihydroxycyclohexyl)-2-methylpyrido[2,3-d]pyrimidin-7(8H)-one], the IC50 (in general, the concentration that inhibits the measured activity by half) in data set [1] is 20 nM; in data set [2], 67 nM. For the same compound, the Vd/F in data set [3] (read-out: Apparent distribution volume Vz/F) was 2.63 L/kg. Further, the AUC(0-t) in data set [3] (read-out: Area under curve AUC0-t) worked out at 4600 ng·h/mL. Also, the CL/F in data set [3] (read-out: Clearance CLz/F) was 7.64 mL/min/kg. The half-life (usually the time needed for the level to fall by half in the phase considered) in data set [3] (read-out: Half-life T½ (converted)) was 3.91 h. For the same compound, in data set [3] (read-out: Plasma concentration Cmax), the Cmax worked out at 710 ng/mL.
